Assay results taken from paper PMC11172314, “Towards Enhanced Tunability of Aqueous Biphasic Systems: Furthering the Grasp of Fluorinated Ionic Liquids in the Purification of Proteins” (International Journal of Molecular Sciences, 2024).
Read-outs that look alike come from different tables or passages of the source.

What was measured:
FITC-Lys (lysozyme) = biological target: T1, FITC-Lys (lysozyme) (Gallus gallus, UniProt P00698); test: Microscale thermophoresis (MST) binding of ABS phase-forming components to FITC-labeled lysozyme; parameters: species or system chicken; conditions: FITC-Lys 0.41 μM, 25 °C
T1 construct: Lyophilized lysozyme from chicken egg white, ≥90% purity; purchased Millipore (Darmstadt, Germany); host or cells: chicken egg white (natural source)
Protocol: Usually, in the labeling process, the position of dye is statistically distributed, and one amine per protein is labeled. […] The four ABS phase-forming components, [ N1112(OH) ][H2PO4] […] (FILs), and [C4C1Im][CF3SO3] […] In each run of MST, a maximum concentration of ligand was selected and consecutively diluted in sixteen capillaries.
Binding studies were conducted through microscale thermophoresis measurements of dye-labeled lysozyme. […] MST tests were conducted in a monolith NT.115 (blue/red) in accordance with the Nano Temper Technologies methodology. Medium MST power and 20% LED power (nano-blue) were set as the instrument’s default settings. For each and every MST measurement, PBS buffer was used. […] For each ligand, a series of 16 1:1 dilutions was prepared using the same buffer, varying the starting ligand concentration from 15 to 400 mM. MST traces were recorded using the standard parameters: 5 s MST power off, 30 s MST power on, and 5 s MST power off. Three independently conducted pipetted experiments’ data were examined using NanoTemper Technologies’ MO. Affinity Analysis program, version 2.3.

lysozyme (Lys) [1] = biological target: T2, lysozyme (Lys) (Gallus gallus, UniProt P00698); test: DSC thermal stability (Tm, ΔH) of lysozyme in water, component solutions and ABS phases; parameters: species or system chicken; conditions: for Lys Tm / Lys ∆H: 1.0 mg/mL Lys
T2 construct: Lyophilized lysozyme from chicken egg white, ≥90% purity; purchased Millipore (Darmstadt, Germany); host or cells: chicken egg white (natural source)
Text: Differential scanning calorimetry (DSC) measurements (Section 3) were used to determine the melting temperature ( Tm ) and enthalpy ( Δ H) of lysozyme, at which both the folded and unfolded states coexist at equilibrium. DSC outputs, thermal transitions at the nanoscale level, allow to analyze alterations on proteins structure and stability, providing sharp perceptions of the factors affecting stability, as well as of the folding and unfolding processes. […] (DSC curve depicted in Figure S16 of Supplementary Materials).
FIL (BP#8, BP#10, BP#11, and BP#12). […] For the system based on [C4C1Im][CF3SO3]
The thermal stability of lysozyme was analyzed in water, ABS phase-forming compounds aqueous solutions, and partition ABS phases. […] Partition lysozyme on each phase from the prepared biphasic points as well as recovered protein from the FIL-rich phase were also addressed for a selection of studied systems listed in Table 1. We acquired thermograms using a TA^TM Nano DSC from TA Instruments. All scans were conducted in a 300 μ L capillary cell through a temperature ramp from 20 to 90 °C at a heating rate of 1 °C/min and 3 atm pressure. All samples were degassed for 7 min at 20 °C, with the exception of FIL-containing samples owing to their surfactant properties. After subtracting the polynomial fit baselines, raw thermogram curve data were fitted with the TwoStateScaled model using NanoAnalyze TA Instruments software, version 3.12, to determine the protein thermal transition temperatures in each sample. During nanoDSC scans, Δ H and Δ S were obtained and utilized to determine Δ G ( Δ G = Δ H − T Δ S).

[2] = parameters: method as in earlier work; conditions: aqueous solution, 25 °C, conductometry; ref 21 (supplement ref 1); cited from earlier work
lysozyme (Lys) [3] = biological target: T2, lysozyme (Lys); test: Far-UV CD secondary structure content of lysozyme (K2D deconvolution); parameters: species or system chicken; Lys α-helix content / Lys β-sheet content / Lys random coil content / α-helix content / β-sheet content / Random coil content: unit not given here; conditions: 25 °C; for Lys random coil content / Lys α-helix content / Lys β-sheet content: 1.0 mg/ml Lys
Protocol: Circular dichroism (CD) spectroscopy is broadly applied to assess the secondary structure of proteins because different structural elements have characteristic CD spectra. […] For [C4C1Im][CF3SO3] (mere fluoro-containing IL), the structural content was estimated for the concentration range (0.1–200 mM). […] FIL and [ N1112(OH) ][H2PO4] […] No substantial protein structural modification upon the ABS phase-forming component addition was verified.
Circular dichroism (CD) spectra were collected in a 10 mm quartz cuvette and a Chirascan spectropolarimeter (Applied Photophysics, Leatherhead, UK) at room temperature. All CD spectra were recorded in far-UV 190 to 260 nm at scan rates of 50 nm/min, 4 accumulations, and a response time of 3 s. Each CD experiment involved the acquisition and combination of two distinct duplicates. […] Spectral deconvolution was carried out with Dichroweb using the K2D algorithm.

lysozyme (Lys) [4] = biological target: T2, lysozyme (Lys); test: Intrinsic (tryptophan) fluorescence of lysozyme; parameters: species or system chicken; conditions: 0.2 mg/mL Lys, excitation 295 nm, component 0.1–800 mM, 25 °C
Text: (FIL), [C4C1Im][CF3SO3] (mere fluoro-containing IL), and [ N1112(OH) ][H2PO4] (globular protein stabilizer). […] Even though large changes in protein conformation can modify the intensity of tyrosine and phenylalanine fluorescence signals, their low extinction coefficients and quantum yields, as well as their relative lower sensitivity to environmental changes, make them a less appealing candidate. Tryptophan is frequently found concealed in the hydrophobic core of proteins due to its aromatic nature. […] The tryptophan release energy is particularly sensitive to the polarity (and dynamics) of the environment because the excited-state dipole moment is quite large. Reactions to denaturation, substrate binding, subunit association, and conformational transitions create variations in the tryptophan emission spectra. The spectrum shift generally known as blue shift, a shift of the maximum emission towards smaller wavelengths, denotes that the aromatic residue is buried in the native structure of the protein [67]. […] Furthermore, the amount of exposure of the fluorophores to the solvent is associated with the increase or decrease in the intensity of the emission spectrum. […] [C4C1Im][CF3SO3] and [ N1112(OH) ][H2PO4] […] Variations in lysozyme spectra are caused by ligand-induced changes in the microenvironment of tryptophan residues, either by shifting the maximum peak wavelength (blue or red shift) or by altering peak intensities. These changes can be used as a measure of the effect of the ABS phase-forming components on protein folding and unfolding.
Intrinsic fluorescence spectroscopy measurements of lysozyme’s tryptophan residues were carried out on a Spex Horiba Jobyin Yvon spectrofluorometer (HORIBA Jobin Yvon, France) using a 10 mm path length quartz cuvette. […] The excitation and emission slit widths of 2 nm were used for all the measurements. Maximum fluorescence values were attained as the average of three measurements.

[5] = cited from earlier work
lysozyme (Lys) [6] = biological target: T2, lysozyme (Lys); parameters: method as in PMID 28478279, PMID 17406547; conditions: cited from earlier work
[7] = max. conc. (first capillary) in monomer range: below 1st CAC for FILs, ]0, 100] mM for non-aggregating ligands

T1 sequence (P00698 19-147): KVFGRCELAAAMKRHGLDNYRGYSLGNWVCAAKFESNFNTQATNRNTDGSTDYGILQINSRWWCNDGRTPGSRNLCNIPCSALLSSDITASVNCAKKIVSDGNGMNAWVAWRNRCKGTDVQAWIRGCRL
T2 sequence (P00698 19-147): as above

Compound	Kd (FITC-Lys (lysozyme); [7])	Lys Tm (lysozyme (Lys) [1]; 0.1 mM component in water) [°C]	Lys ∆H (lysozyme (Lys) [1]; 0.1 mM component in water) [kcal/mol]	Lys Tm (lysozyme (Lys) [1]; 1 mM component in water) [°C]	Lys ∆H (lysozyme (Lys) [1]; 1 mM component in water) [kcal/mol]	Lys Tm (lysozyme (Lys) [1]; 5 mM component in water) [°C]	Lys ∆H (lysozyme (Lys) [1]; 5 mM component in water) [kcal/mol]	Lys Tm (lysozyme (Lys) [1]; 10 mM component in water) [°C]	Lys ∆H (lysozyme (Lys) [1]; 10 mM component in water) [kcal/mol]	Lys random coil content (lysozyme (Lys) [3]; 0.1 mM component)	Lys α-helix content (lysozyme (Lys) [3]; 0.1 mM component)	Lys β-sheet content (lysozyme (Lys) [3]; 0.1 mM component)	Lys random coil content (lysozyme (Lys) [3]; 1 mM component)	Lys α-helix content (lysozyme (Lys) [3]; 1 mM component)	Lys β-sheet content (lysozyme (Lys) [3]; 1 mM component)	Lys random coil content (lysozyme (Lys) [3]; 5 mM component)	Lys α-helix content (lysozyme (Lys) [3]; 5 mM component)	Lys β-sheet content (lysozyme (Lys) [3]; 5 mM component)	Lys random coil content (lysozyme (Lys) [3]; 25 mM component)	Lys α-helix content (lysozyme (Lys) [3]; 25 mM component)	further results
C[N+](C)(C)CCO.O=S(=O)([O-])C(F)(F)C(F)(F)C(F)(F)C(F)(F)F [[N1112(OH) ][C4F9SO3]]	no binding detected	77.15	136.3	76.65	127.7	75.19	123	74.28	134	0.57	0.28	0.15	0.58	0.28	0.14	0.56	0.25	0.19	0.57	0.24	Lys Tm (lysozyme (Lys) [1]; 25 mM component in water, several transitions listed singly, listed as [N1112(OH)][C4F9SO3]): 83.98 °C; 1st CAC [2]: 16.02 mM; 2nd CAC [2]: 35.17 mM; 3rd CAC [2]: 185.65 mM; Lys β-sheet content (lysozyme (Lys) [3]; 25 mM component): 0.2
O=S(=O)(O)C(F)(F)C(F)(F)C(F)(F)C(F)(F)F [[N1112(OH) ][C4F9SO3]]																					Kd (FITC-Lys (lysozyme); max. conc. (first capillary) in 1st CAC range ([14.4, 34.48[ or [16.02, 35.17[ mM), read-out: Kd): 6.05 ± 1.67 mM; Kd (FITC-Lys (lysozyme); max. conc. (first capillary) in 2nd CAC range ([34.48, 76.54[ or [35.17, 185.65[ mM), read-out: Kd): 6.25 ± 1.47 mM
C[N+](C)(C)CCO.C[N+](C)(C)CCO.O=P([O-])(O)O.O=P([O-])(O)O [[N1112(OH) ][H2PO4], Choline ((2-hydroxyethyl)trimethylammonium) dihydrogen phosphate]	no binding detected	77.10	134.8	77.11	132.5	76.70	142.8	77.06	137.8	0.56	0.29	0.15	0.58	0.28	0.14	0.56	0.25	0.18	0.57	0.24	Lys β-sheet content (lysozyme (Lys) [3]; 25 mM component): 0.2; Lys fluorescence emission intensity with increasing component concentration (lysozyme (Lys) [4]): reduction in fluorescence emission intensity; Lys maximum emission wavelength with increasing component concentration (lysozyme (Lys) [4]): remains constant
Lys: lysozyme from chicken egg white (muramidase, EC 3.2.1.17), 14 kDa globular protein used as protein model																					isoelectric point [5]: around 11.0; Tm (lysozyme (Lys) [1]; 0.5 mg/ml Lys in water): 69.26±0.031 °C; ∆H (lysozyme (Lys) [1]; 1.0 mg/mL Lys in water): 118 kcal/mol; Tm (lysozyme (Lys) [1]; 3.0 mg/ml Lys in water): 73.85±0.005 °C; β-strand, analysis based on various methods (lysozyme (Lys) [6]): ≈ 19%; α-helix, secondary structure prediction (lysozyme (Lys) [3]; 1.0 mg/mL Lys in water): 29%; β-strand, secondary structure prediction (lysozyme (Lys) [3]; 1.0 mg/mL Lys in water): 14%; Random coil content (lysozyme (Lys) [3]; 1.0 mg/ml Lys in water (0 mM)): 0.57; α-helix content (lysozyme (Lys) [3]; 1.0 mg/ml Lys in water (0 mM)): 0.29; β-sheet content (lysozyme (Lys) [3]; 1.0 mg/ml Lys in water (0 mM)): 0.14
